Test results reported in patent US12637433B2, “Histone deacetylase inhibitors” (THE UNIVERSITY OF QUEENSLAND, priority 2020, dated 2026).

target: T1, human HDAC7 enzyme (Homo sapiens, UniProt Q8WUI4); experiment: Human HDAC7 enzyme assay (Class IIa HDACs); assay type: biochemical; conditions: Table 8; recombinant human HDAC7
T1 construct: purchased Reaction Biology Corp
T1 sequence (Q8WUI4 whole entry): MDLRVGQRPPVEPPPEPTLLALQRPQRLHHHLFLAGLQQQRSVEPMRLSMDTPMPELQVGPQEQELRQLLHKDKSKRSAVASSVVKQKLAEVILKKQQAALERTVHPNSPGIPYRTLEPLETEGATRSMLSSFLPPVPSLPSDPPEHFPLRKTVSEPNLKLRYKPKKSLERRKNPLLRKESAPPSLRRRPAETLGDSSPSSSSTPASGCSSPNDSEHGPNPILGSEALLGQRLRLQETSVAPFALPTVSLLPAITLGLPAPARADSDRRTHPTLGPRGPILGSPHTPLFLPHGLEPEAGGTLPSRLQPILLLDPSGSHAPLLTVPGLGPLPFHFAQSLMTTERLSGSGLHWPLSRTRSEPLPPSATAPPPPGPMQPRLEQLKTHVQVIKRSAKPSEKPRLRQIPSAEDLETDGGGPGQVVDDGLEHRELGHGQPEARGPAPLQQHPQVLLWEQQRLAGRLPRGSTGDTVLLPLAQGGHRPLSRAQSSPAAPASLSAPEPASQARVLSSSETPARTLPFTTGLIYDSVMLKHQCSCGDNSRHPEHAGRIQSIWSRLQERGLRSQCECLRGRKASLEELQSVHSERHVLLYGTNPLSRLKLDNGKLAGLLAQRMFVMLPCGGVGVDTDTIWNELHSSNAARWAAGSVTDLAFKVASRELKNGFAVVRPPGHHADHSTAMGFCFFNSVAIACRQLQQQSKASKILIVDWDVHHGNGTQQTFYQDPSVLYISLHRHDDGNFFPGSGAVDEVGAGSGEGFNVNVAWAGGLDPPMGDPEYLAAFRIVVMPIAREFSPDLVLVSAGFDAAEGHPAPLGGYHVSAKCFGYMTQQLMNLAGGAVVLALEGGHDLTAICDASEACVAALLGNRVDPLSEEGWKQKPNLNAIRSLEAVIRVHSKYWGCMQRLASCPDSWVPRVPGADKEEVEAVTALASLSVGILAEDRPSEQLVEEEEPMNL

First: Cc1cccc(-c2cc(CNC(=O)Nc3cccc4cccnc34)ccc2C(=O)NO)c1 [Example 10]
Second: O=C(NCc1ccc(C(=O)NO)c(-c2cccc(Cl)c2)c1)Nc1cccc2cccnc12 [Example 8]
The IC50 of the first is higher: over 10000 nM for the first, 886 ± 192 nM for the second. The second is the more potent here.

O=C(NCc1ccc(C(=O)NO)c(-c2ccccc2)c1)c1cccnc1 [Example 17] and O=C(NCc1ccc(C(=O)NO)c(-c2ccccc2)c1)c1ccncc1 [Example 18] are within error of each other in IC50: 151 ± 52 nM for the first, 205 ± 47 nM for the second.

Going from CC1C(=O)NC(Cc2ccccc2)C(=O)N1Cc1ccc(C(=O)NO)c(-c2ccccc2)c1 (mixture of isomers) [Example 96] to CC1C(=O)Nc2ccccc2C(=O)N1Cc1ccc(C(=O)NO)c(-c2ccccc2)c1 (stereo not shown) [Example 97], the IC50 falls from 322 ± 109 nM to 74 ± 13 nM (4.4-fold).

Going from COc1cccc(-c2cc(CNC(=O)Nc3cccc4cccnc34)ccc2C(=O)NO)c1 [Example 103] to O=C(NCc1ccc(C(=O)NO)c(-c2cccc(F)c2)c1)Nc1cccc2cccnc12 [Example 5], the IC50 falls from over 10000 nM to 64 ± 12 nM.

Compared with O=C(NO)c1ccc(Nc2ccc3ccccc3c2)cc1-c1ccccc1 [Example 73], O=C(NO)c1ccc(Nc2ccccc2)cc1-c1ccccc1 [Example 66] is 3.4-fold lower in IC50: 321 nM for the first, 94 nM for the second.

First: O=C(NO)c1ccc(Nc2ccc(F)cc2)cc1-c1ccccc1 [Example 67]
Second: O=C(NO)c1ccc(Nc2ccc(Cl)cc2)cc1-c1ccccc1 [Example 68]
The IC50 of the first is 2-fold lower: 88 nM for the first, 178 nM for the second.

CC(=O)Nc1cccc(C(=O)NCc2ccc(C(=O)NO)c(-c3ccccc3)c2)c1 [Example 19] and CC(=O)Nc1ccc(C(=O)NCc2ccc(C(=O)NO)c(-c3ccccc3)c2)cc1 [Example 20] are within error of each other in IC50: 78 ± 21 nM for the first, 101 ± 26 nM for the second.

Going from Cc1nc2ccccc2c(=O)n1Cc1ccc(C(=O)NO)c(C2CC2)c1 [Example 106] to CONC(=O)c1ccc(Cn2c(C)nc3ccccc3c2=O)cc1-c1ccccc1 [Example 101], the IC50 rises from 8660 nM to at least 10000 nM.

Compared with O=C(O)c1ccc(CNCc2ccc(C(=O)NO)c(-c3ccccc3)c2)cc1-c1ccccc1 [Example 33, N-(4-hydroxyaminocarbonyl-3-phenylbenzyl)-N-(4-hydroxycarbonyl-3-phenylbenzyl)amine], O=C(NO)c1ccc(CNCc2ccc(C(=O)NO)c(-c3ccccc3)c2)cc1-c1ccccc1 [Example 31, bis(4-hydroxyaminocarbonyl-3-phenylbenzyl)amine] is 5.3-fold lower in IC50: 658 ± 208 nM for the first, 125 ± 22 nM for the second.

O=C(NO)c1ccc(NC(=O)C2(C(=O)Nc3ccccc3)CCCC2)cc1-c1ccccc1 [Example 89] and O=C(NO)c1ccc(NC(=O)C2(C(=O)Nc3ccccc3)CCCCC2)cc1-c1ccccc1 [Example 90] are within 1.5-fold of each other in IC50: 243 nM for the first, 168 nM for the second.

O=C(Nc1ccc(C(=O)NO)c(-c2ccccc2)c1)c1ccc(F)cc1 [Example 61] and Cc1ccc(C(=O)Nc2ccc(C(=O)NO)c(-c3ccccc3)c2)cc1 [Example 62] are within 1.5-fold of each other in IC50: 645 nM for the first, 431 nM for the second.

O=C(NO)c1ccc(Nc2ccccn2)cc1-c1ccccc1 [Example 82] and O=C(NO)c1ccc(Nc2cnccn2)cc1-c1ccccc1 [Example 84] are within error of each other in IC50: 249 nM for the first, 233 ± 95 nM for the second.

Going from O=C(NO)c1ccc(Nc2ncccn2)cc1-c1ccccc1 [Example 83] to Cc1ccc(Nc2ccc(C(=O)NO)c(-c3ccccc3)c2)cc1 [Example 76], the IC50 falls from 447 ± 177 nM to 81 ± 19 nM (5.5-fold). The second is the more potent here.

Going from O=C(NO)c1ccc(NC(=O)C2(C(=O)Nc3ccccc3)CCC2)cc1-c1ccccc1 [Example 88] to O=C(NO)c1ccc(NC(=O)C2(C(=O)Nc3ccccc3)CC2)cc1-c1ccccc1 [Example 87], the IC50 rises from 75 ± 23 nM to 241 nM (3.2-fold).

O=C(Cc1c[nH]c2ccccc12)NCc1ccc(C(=O)NO)c(-c2ccccc2)c1 [Example 25] and O=C(NCc1ccc(C(=O)NO)c(-c2ccccc2)c1)c1ccccc1 [Example 15] are within error of each other in IC50: 238 ± 86 nM for the first, 123 ± 39 nM for the second.

First: CC1C(=O)N(C2CCCCC2)C(=O)N1Cc1ccc(C(=O)NO)c(-c2ccccc2)c1 (stereo not shown) [Example 98]
Second: O=C(NO)c1ccc(CNC(=O)C2CCCN2)cc1-c1ccccc1 (stereo not shown) [Example 27]
The IC50 of the first is 9.6-fold lower: 100 ± 18 nM for the first, 960 ± 225 nM for the second. The first is the more potent here.

Compared with C[C@H](N)C(=O)NCc1ccc(C(=O)NO)c(-c2ccccc2)c1 [Example 92], O=C(NCc1ccc(C(=O)NO)c(-c2ccccc2)c1)c1cnc[nH]1 [Example 94] is 19-fold lower in IC50: 3130 ± 1730 nM for the first, 165 ± 45 nM for the second. The second is the more potent here.

Going from CN(c1ccc(F)cc1)c1ccc(C(=O)NO)c(-c2ccccc2)c1 [Example 81] to O=C(NO)c1ccc(Oc2ccc(F)cc2)cc1-c1ccccc1 [Example 80], the IC50 rises from 64 ± 10 nM to 175 ± 26 nM (2.7-fold).

First: Cc1nc2ccccc2c(=O)n1Cc1ccc(C(=O)N(C)O)c(-c2ccccc2)c1 [Example 100]
Second: O=C(NCc1ccc(C(=O)NO)c(-c2ccccc2)c1)Nc1ccccc1 [Example 28]
The IC50 of the first is higher: at least 10000 nM for the first, 104 ± 21 nM for the second. The second is the more potent here.

O=C(O)c1ccc(Nc2ccc(C(=O)NO)c(-c3ccccc3)c2)cc1 [Example 74] and CC(C)(C)OC(=O)c1ccc(Nc2ccc(C(=O)NO)c(-c3ccccc3)c2)cc1 [Example 75] are within error of each other in IC50: 68 ± 15 nM for the first, 54 ± 7 nM for the second.

Nc1ccc(C(=O)NO)c(-c2ccccc2)c1 [Example 99] and O=C(NO)c1ccc(CNCc2ccc[nH]2)cc1-c1ccccc1 [Example 95] are within error of each other in IC50: 945 nM for the first, 914 ± 204 nM for the second.

Compared with O=C(NO)c1ccc(Nc2cc(F)cc(F)c2)cc1-c1ccccc1 [Example 71], O=C(NO)c1ccc(Nc2cc(F)c(F)c(F)c2)cc1-c1ccccc1 [Example 70] is 3.2-fold higher in IC50: 206 nM for the first, 649 nM for the second. The first is the more potent here.

Compared with O=C(NO)c1ccc(NC(=O)C2(c3c[nH]c(-c4ccc([N+](=O)[O-])cc4)n3)CCCC2)cc1-c1ccccc1 [Example 85], O=C(NO)c1ccc(NC(=O)C2(c3ccc4ccccc4c3)CCOCC2)cc1-c1ccccc1 [Example 93] is 2.5-fold higher in IC50: 625 ± 318 nM for the first, 1590 nM for the second.

Compared with COc1ccc(-c2cc(CNC(=O)Nc3cccc4cccnc34)ccc2C(=O)NO)cc1 [Example 102], Cc1ccc(-c2cc(CNC(=O)Nc3cccc4cccnc34)ccc2C(=O)NO)cc1 [Example 11] is lower in IC50: over 10000 nM for the first, 1890 ± 431 nM for the second.

Compared with O=C(NO)c1c(F)cc(CN2C(=O)c3ccccc3S2(=O)=O)cc1-c1ccccc1 [Example 57b], O=C(NCc1ccc(C(=O)NO)c(-c2ccccc2)c1)c1ccccn1 [Example 16] is 5.4-fold lower in IC50: 582 ± 104 nM for the first, 108 ± 34 nM for the second.

O=C(NCc1ccc(C(=O)NO)c(-c2ccccc2)c1)c1ccccc1NC(=O)C(F)(F)F [Example 22] and NC(=O)c1ccc(C(=O)NCc2ccc(C(=O)NO)c(-c3ccccc3)c2)cc1 [Example 21] are within error of each other in IC50: 925 ± 865 nM for the first, 116 ± 27 nM for the second.

First: O=C(NO)c1ccc(CNCc2ccccc2)cc1-c1ccccc1 [Example 30, 5-((benzylamino)methyl)-N-hydroxy-[1,1′-biphenyl]-2-carboxamide]
Second: COC(=O)c1ccc(CNCc2ccc(C(=O)NO)c(-c3ccccc3)c2)cc1-c1ccccc1 [Example 32, N-(4-hydroxyaminocarbonyl-3-phenylbenzyl)-N-(4-methoxycarbonyl-3-phenylbenzyl)amine]
The IC50 of the first is 11-fold higher: 1470 ± 426 nM for the first, 137 ± 30 nM for the second.

O=C(NCc1ccc(C(=O)NO)c(-c2ccccc2Cl)c1)Nc1cccc2cccnc12 [Example 7] and O=C(NCc1ccc(C(=O)NO)c(-c2ccccc2F)c1)Nc1cccc2cccnc12 [Example 4] are within error of each other in IC50: 178 ± 47 nM for the first, 152 ± 40 nM for the second.

O=C(Nc1ccccc1)Nc1ccc(C(=O)NO)c(-c2ccccc2)c1 [Example 86] and O=C(Nc1ccc(C(=O)NO)c(-c2ccccc2)c1)c1ccccc1 [Example 60] are within 1.5-fold of each other in IC50: 248 nM for the first, 325 nM for the second.

Going from O=C(NO)c1ccc(C(n2cc(-c3ccccc3)nn2)n2cc(-c3ccccc3)nn2)cc1-c1ccccc1 [Example 58] to O=C(NO)c1ccc(Nc2ccc(-c3ccccc3)cc2)cc1-c1ccccc1 [Example 72], the IC50 rises from 5 ± 1 nM to over 10000 nM. The first is the more potent here.

Going from COc1ccc(Nc2ccc(C(=O)NO)c(-c3ccccc3)c2)cc1 [Example 77] to COc1ccc(C(=O)Nc2ccc(C(=O)NO)c(-c3ccccc3)c2)cc1 [Example 63], the IC50 rises from 61 ± 9 nM to 323 nM (5.3-fold).

First: O=C(NO)c1ccc(Nc2ccc(C(F)(F)F)cc2)cc1-c1ccccc1 [Example 69]
Second: O=C(NCc1ccc(C(=O)NO)c(-c2ccc(F)cc2)c1)Nc1cccc2cccnc12 [Example 6]
The IC50 of the first is 4.9-fold higher: 578 nM for the first, 118 ± 21 nM for the second.

Compared with Nc1ccc(-c2cc(CNC(=O)Nc3cccc4cccnc34)ccc2C(=O)NO)cc1 [Example 105], Cc1ccccc1-c1cc(CNC(=O)Nc2cccc3cccnc23)ccc1C(=O)NO [Example 9] is lower in IC50: over 10000 nM for the first, 125 ± 26 nM for the second.

First: O=C(NCc1ccc(C(=O)NO)c(-c2cn[nH]c2)c1)Nc1cccc2cccnc12 [Example 104]
Second: CCCCCCNC(=O)NCc1ccc(C(=O)NO)c(-c2ccccc2)c1 [Example 29]
The IC50 of the first is higher: over 10000 nM for the first, 196 ± 66 nM for the second.

target: T2, human HDAC1 enzyme (Homo sapiens, UniProt Q13547); experiment: Human HDAC1 enzyme assay (Class I HDACs); assay type: biochemical; conditions: Table 8; recombinant human HDAC1; read-out: IC50 (nM) (HDAC1)
T2 construct: purchased BPS Bioscience
Protocol: The inhibitory effect of compounds on HDAC1 activity was assessed in vitro using an optimised assay performed in black/flat black wall 384-well plate (Corning Inc.). All reagents and compounds were prepared in HDAC1 assay buffer (25 mM Tris-HCl, 137 mM NaCl, 2.7 mM KCl, 1 mM MgCl2·H2O and 0.1 mg/mL bovine serum albumin; pH 8). Various concentrations of inhibitor were pre-incubated with 50 ng/mL human HDAC1 enzyme (BPS Bioscience) for 30 min at room temperature on a plate shaker. Substrate (Leu(Ac)-Gly-Lys(Ac)-AMC, 12 μM) were then added and incubated for 90 min at 37° C. in the dark. The enzymatic reaction was then incubated with the developer solution (1 mg/mL trypsin and 25 μM SAHA) for 15-20 min at room temperature. Fluorescence intensity was measured using PHERAstar plate reader (BMG Labtech) at 350 nm excitation and 460 nm emission.
Data analysis: Triplicate measurements were made for each data point and error bars represent mean±SEM of three independent experiments. All data were plotted and analysed using GraphPad Prism Version 6.0d for Mac OS X (GraphPad Software). Dose Response Curves plotted using 4 parameters logistic model.

T2 sequence (Q13547 whole entry): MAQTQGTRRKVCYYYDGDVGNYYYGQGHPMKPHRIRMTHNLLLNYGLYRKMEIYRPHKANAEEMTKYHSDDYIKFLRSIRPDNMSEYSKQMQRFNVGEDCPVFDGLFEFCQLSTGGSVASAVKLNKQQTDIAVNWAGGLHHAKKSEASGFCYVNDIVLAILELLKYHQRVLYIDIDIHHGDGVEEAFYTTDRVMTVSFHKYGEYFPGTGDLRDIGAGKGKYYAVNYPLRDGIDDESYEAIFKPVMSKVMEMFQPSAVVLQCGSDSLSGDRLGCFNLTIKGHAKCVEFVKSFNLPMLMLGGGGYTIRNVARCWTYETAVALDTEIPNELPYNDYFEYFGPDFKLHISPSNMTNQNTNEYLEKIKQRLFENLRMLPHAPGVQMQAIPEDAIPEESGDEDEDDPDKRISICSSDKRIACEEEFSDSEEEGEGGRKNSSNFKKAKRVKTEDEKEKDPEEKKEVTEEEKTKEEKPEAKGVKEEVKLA

Going from O=C(NO)c1ccc(CN2Cc3ccccc3C2=O)cc1-c1ccccc1 [Example 49] to O=C(NO)c1ccc(Cn2cnc3ccccc3c2=O)cc1-c1ccccc1 [Example 34], the IC50 falls from 33000 nM to 3190 ± 816 nM (10-fold). The second is the more potent here.

Going from O=C(NCc1ccc(C(=O)NO)c(-c2ccccc2)c1)c1ccccc1F [Example 50] to CCc1nc2ccccc2c(=O)n1Cc1ccc(C(=O)NO)c(-c2ccccc2)c1 [Example 35], the IC50 falls from 16000 nM to 5280 ± 3490 nM (3-fold).

O=C(NO)c1ccc(Cn2c(=O)cc[nH]c2=O)cc1-c1ccccc1 [Example 38] and O=C(NO)c1ccc(CN2C(=O)CCC2=O)cc1-c1ccccc1 [Example 51] cannot be ordered by IC50: over 10000 nM for the first, over 20000 nM for the second.

O=C(NO)c1ccc(CN2C(=O)c3ccncc3C2=O)cc1-c1ccccc1 [Example 54] and O=C(NO)c1ccc(CN2C(=O)c3cccnc3C2=O)cc1-c1ccccc1 [Example 53] cannot be ordered by IC50: over 20000 nM for the first, 28000 nM for the second.
